Measured values taken from US9708247B2, “Modulators of the eIF2alpha pathway” (The Regents of the University of California, priority 2013, dated 2017).

Columns and labels:
Type in all cases: cell-based, human
ATF4 luciferase reporter = ATF4 luciferase reporter assay (Cell-luc) in HEK293T cells; conditions: ER stressor alone, 384 well format
global translation = assay: Metabolic labeling (35S-methionine incorporation) in HEK293T cells; conditions: 100 nM thapsigargin alone
Protocol: HEK293T cells were seeded on 12 well plates, allowed to recover overnight and treated for the indicated times with the indicated compounds. The cells were subsequently switched to media lacking methionine and cysteine supplemented with the indicated compounds and 50 μCi of ^35S-methionine (Perkin Elmer) for 20 min. Cells were lysed by addition of SDS-PAGE loading buffer. Lysates were sonicated and equal amounts were loaded on SDS-PAGE gels (BioRad). The gel was dried and radioactive methionine incorporation was detected by exposure to a phosphor-screen and visualized with a Typhoon 9400 Variable Mode Imager (GE Healthcare).

eIF2α (p-Ser51) = assay: AlphaScreen SureFire eIF2α(p-Ser51) assay in U2OS cells; conditions: U2OS cells, ER stressor alone, after 120 minutes
Protocol: U2OS cells were plated on 96 well plates and left to recover overnight. Cells were treated with either with 2 μg/ml tunicamycin or 100 nM thapsigargin in the presence or absence of 100 nM ISRIB or with ISRIB alone for the indicated and the level of eIF2α phosphorylation was determined using the AlphaScreen SureFire eIF2α(p-Ser51) Assay kit (Perkin Elmer) following the manufacturer's recommendations. Plates were read in an Envision Xcite Multilabel Reader using the standard Alpha Screen settings.

## C/C=C(/C)C(=O)O[C@H]1C(C)=C2[C@H]([C@@H]1OC(=O)CCCCCCC)[C@@](C)(OC(C)=O)C[C@H](OC(=O)CCC)[C@@]1(O)[C@H]2OC(=O)[C@@]1(C)O [Thapsigargin, thapsigargin, reference compound]
ATF4 luciferase reporter
  induction in luciferase activity: 4.9 fold
Global translation
  drop in translation: 40%
eIF2α (p-Ser51)
  increase of eIF2α phosphorylation: 7 fold
